This note sets out measurements from US9636343B2, “Composition for preventing and treating acetaminophen inducing hepatotoxicity containing TNP(N2-(m-Trifluorobenzyl), N6-(p-nitrobenzyl)purine) as an effective ingredient” (Korea Advanced Institute of Science and Technology, priority 2015, dated 2017).

For experiment [1], the system named is reduced glutathione (GSH) in mouse derived liver cells. Nature of the experiment: Intracellular reduced glutathione (GSH) level, GSH-Glo Glutathione Assay, in mouse derived liver cells. It counts as cell-based. Conditions: FIG. 6. The protocol: The metabolizing activity of liver cells on acetaminophen according to the treatment of TNP was investigated.
Particularly, the level of the reduced glutathione (GSH) in the mouse derived liver cells treated with acetaminophen and TNP by the same manner as described in Experimental Example 2 was measured. The measurement of the reduced glutathione was performed by using GSH-Glo Glutathione Assay kit (Promega) with Tristar2 LB 942 plate reader.

Experiment [2] relates to male C57BL/6J mouse. Nature of the experiment: Individual survival rate in acetaminophen treated mouse model. It counts as in vivo. The following applies: acetaminophen 500 mg/kg orally, then TNP 10 mg/kg intraperitoneal, FIG. 9. How it is done: The inventors investigated whether or not TNP had the activity of protecting liver cells from the toxicity caused by acetaminophen in an animal model.
Particularly, the male C57BL/6J mouse at 8˜10 weeks was orally administered with 500 mg/kg of acetaminophen (Sigma) dissolved in water. Then, the mouse was administered with 10 mg/kg of TNP (Calbiocham) dissolved in olive oil (Sigma) via intraperitoneal injection, followed by investigation of individual survival rate. Statistical analysis was performed by Kaplan-Meier survival analysis, and the maximum limit of the significance was determined as p<0.05.

The test system of experiment [3] is human hepatoma cell line HepG2. Nature of the experiment: Acetaminophen caused apoptosis (cell survival rate) in human hepatoma cell line HepG2. It counts as cell-based. The following applies: acetaminophen 25 mM together with TNP 100 μM, 18 hours, FIGS. 4 and 5. The protocol:
The human hepatoma cell line HepG2 was distributed in a 6 well plate precoated with gelatin at the density of 1×10^6 cells/ml, followed by culture for 24 hours for cell adhesion. The culture medium herein was DMEM (Biowest) supplemented with 10% FBS, 10 nM dexamethasone, 10 nM insulin, and penicillin/streptomycin (100 μg/ml). The cells were cultured in a 37° C. incubator under the control of temperature and humidity with supplying a mixed gas containing CO2 by 5%.
The changes in acetaminophen caused apoptosis according to the treatment of TNP were investigated in the human hepatoma cell line HepG2 cultured by the same manner as described in Example 3.
Particularly, the human hepatoma cell line HepG2 was distributed in a 6 well plate at the concentration of 90% each well. The cell survival rate was calculated by the same manner as described in Experimental Example 1. All the statistic treatments in this invention were presented as mean±SD and the statistic analysis was performed by using Student's t-test. The maximum limits of significance were determined as p<0.05.

Experiment [4] relates to phosphorylated JNK. Description: JNK phosphorylation (Western blotting) in human hepatoma cell line HepG2. It counts as cell-based. The following applies: acetaminophen together with TNP, FIG. 8. The protocol:
(§1) The regulation of response against stress caused by acetaminophen in liver cells according to the treatment of TNP was investigated.
Particularly, the human hepatoma cell line HepG2 treated with acetaminophen and TNP by the same manner as described in Experimental Example 3 was obtained. Cell extract was prepared for protein assay. Then, SDS-PAGE and Western blotting were performed by the same manner as described in Experimental Example 5.
(Immunoblotting shows a protein as a band on a membrane.)

The subject of experiment [5] is mouse derived liver cells. Nature of the experiment: Acetaminophen caused apoptosis (cell survival rate) in mouse derived liver cells. It counts as cell-based. Conditions: acetaminophen 25 mM together with TNP 100 μM, 18 hours, FIG. 3. The source says:
Particularly, the male C57BL/6J mouse at 10˜12 weeks was anesthetized by administrating Avertin via intraperitoneal injection, and the abdomen was opened. 24 gauge catheter was inserted in the portal vein to perfuse with a perfusion solution (1.42 M Nacl, 0.067 M Kcl, 0.1 M HEPES PH 7.4, 0.05 M EGTA). Then, a digestion solution comprising collagenase (Worthington, USA) was circulated. After the liver cells were digested, the mesenteric membrane was peeled off to separate liver cells, followed by filtering with nylon mesh. The filtrate was centrifuged at 100×g for 3 minutes. The supernatant was discarded and the precipitated liver cells were suspended in HBSS buffer (Hanks' Balanced salt solution, WelGene), followed by centrifugation. The precipitated liver cells were centrifuged at 2400 rpm for 10 minutes in Percol solution (autoclaved percoll (Sigma), 10×PBS, 1 M HEPES pH 7.4). The supernatant was discarded and the precipitated liver cells were suspended in HBSS buffer (Hanks' Balanced salt solution, WelGene), followed by centrifugation again at 100×g. […]
Particularly, the mouse derived liver cells were distributed in a 6 well plate at the concentration of 100% each well. The cell survival rate was calculated by the same manner as described in Experimental Example 1. […] The maximum limits of significance were determined as p<0.05.

Experiment [6] deals with male C57BL/6J mouse. Nature of the experiment: Liver toxicity in acetaminophen treated mouse model: histopathological analysis and blood analysis (AST and ALT). It counts as in vivo. The following applies: acetaminophen 500 mg/kg orally, TNP 10 mg/kg intraperitoneal, 6 hours later. How it is done: (§2) To investigate the preventing effect of TNP on the acetaminophen caused liver toxicity in the animal model of Example 7, tissues, blood, and JNK phosphorylation were analyzed.
(§3) Particularly, acetaminophen and TNP were injected to the male mouse by the same manner as described in Example 7. 6 hours later, the liver was extracted from the mouse, followed by histopathological analysis, blood analysis (AST and ALT), and stress signaling activity (JNK) analysis. For the blood analysis, a blood sample was obtained from orbit of the mouse. The blood sample was centrifuged at 13,000 rpm for 10 minutes to obtain serum. AST and ALT analysis was performed (Idexx VetTest 8008 chemistry analyzer) with 100 μl of the serum obtained above. To investigate the stress signaling activity, the liver tissues extracted from the liver taken out above were loaded in RIPA medium (1 M tris-Cl (PH7.4), 1 M NaCl, 0.5 M EDTA, NP-40, 10% sodium deoxycholate, 10% SDS), followed by lysis with a homogenizer. After the centrifugation, the supernatant was collected, followed by SDS-PAGE and Western blotting. The phosphorylated JNK and the total JNK were quantified by Western blotting by the same manner as described in Example 5.

In experiment [7] the test system is phosphorylated JNK. Description: JNK phosphorylation (Western blotting) in mouse derived liver cells. It counts as cell-based. Conditions: acetaminophen together with TNP, FIG. 7. How it is done:
as §1
Particularly, the mouse derived liver cells treated with acetaminophen and TNP by the same manner as described in Experimental Example 2 were obtained. Cell extract was prepared for protein assay. Then, SDS-PAGE and Western blotting were performed. The cells were lysed in 10 ml of SDS buffer (50 mM Tris-HCl, 1% IGEPAL CA-630, 0.25% deoxycholic acid, 150 mM NaCl, 1 mM ethylene-diamine tetra acetic acid, 1 mM NaF, and 0.1% sodium dodecyl sulfate, pH 7.4) containing protease inhibitor cocktail (Complete Mini, Roche, Germany). The cell lysate was placed in ice for 20 minutes, followed by centrifugation at 4° C., at 13000 rpm, for 10 minutes. Upon completion of the centrifugation, the protein in the supernatant was quantified (Bio-Rad Laboratories, USA). 50 μg of the protein was loaded for SDS-PAGE (SDS-polyacrylamide gel electrophoresis). The electrophoresed protein was transferred onto Immobilon-P transfer membrane (Millipore Corporate, USA) by using electroblotting. The membrane was then loaded in TBS (Tris-buffered saline) containing 0.1% Tween 20 and 10% milk powder, followed by blocking for 1 hour. […] The activity was analyzed by using Image J software (version 1.37, NIH, USA).

For experiment [8], the system named is human embryonic stem cell-derived liver cells. Nature of the experiment: Acetaminophen caused apoptosis (cell survival rate, trypan blue) in human embryonic stem cell-derived liver cells. Conditions: hESC-derived liver cells; acetaminophen 25 mM together with TNP 100 μM, 18 hours; FIG. 2. It counts as cell-based. How it is done:
Particularly, CHA-hESC cell line was cultured in the conditioned medium with feeder-free system for 3 days to be confluent. Upon completion of the culture, the hESC cells were cultured in RPMI-1640 (Hyclone, USA) supplemented with 50 ng/ml of Activin A (Peprotech, USA) for 5 days to induce the differentiation. The differentiated cells were cultured in the hepatocyte culture medium (HCM; Lonza, USA) supplemented with 30 ng/ml of fibroblast growth factor 4 (Peprotech) and 20 ng/ml of bone morphogenetic protein 2 (BMP2; Peprotech) for 5 days. Then, the cells were further cultured in the hepatocyte culture medium supplemented with 20 ng/ml of hepatocyte growth factor (HGF; Peprotech) for another 5 days to induce the differentiation of hESC into hepatocytes. The differentiated hepatocytes were cultured in the hepatocyte culture medium supplemented with 10 ng/ml of oncostatin M (R&D Systems, USA) and 0.1 μM of dexamethasone (Sigma) for 5 days to induce maturation of the hepatocytes. At last, the mature hepatocytes were obtained. […]
Particularly, the liver cells on the 19th day from the differentiation from human stem cells were distributed in a 6 well plate at the concentration of 90% each well. […] This experiment was performed in triplicate and the cell survival rate was analyzed based on the results. […] The maximum limits of significance were determined as p<0.05.

Experiment [9] deals with phosphorylated JNK. Description: Stress signaling activity (JNK phosphorylation) in liver tissue of acetaminophen treated mouse model. It counts as in vivo. Conditions: acetaminophen 500 mg/kg orally, TNP 10 mg/kg intraperitoneal, 6 hours later, FIG. 12. The protocol: as §2, §3

Turning to `O=[N+]([O-])c1ccc(CNc2nc(NCc3cccc(C(F)(F)F)c3)nc3[nH]cnc23)cc1` [TNP, N2-(m-Trifluorobenzyl), N6-(p-nitrobenzyl)purine], the “decrease of the reduced glutathione caused by acetaminophen” value in experiment [1] (acetaminophen together with TNP) is listed as “back to increase”. Moreover, the “reduced glutathione concentration in the liver cells” value in experiment [1] (treatment of TNP alone) is “increased”. The individual survival rate entry in the experiment on male C57BL/6J mouse [2] is “effect of protecting a mouse from the acetaminophen caused liver toxicity”. Also, the “apoptosis of liver cells caused by acetaminophen” value in [3], in experiment [5] and in [8] was “significantly suppressed” throughout. Further, the “phosphorylated JNK signal increased by the acetaminophen caused stress response” value in the experiment on phosphorylated JNK [4] and in the experiment with phosphorylated JNK [7] was “significantly suppressed” throughout. Also, the “level of ALT (liver toxicity serum index)” value with male C57BL/6J mouse [6] (mouse serum, FIG. 11) is recorded as “significantly decreased”. Also, the “level of AST (liver toxicity serum index)” value in the experiment on male C57BL/6J mouse [6] (mouse serum, FIG. 11) is “significantly decreased”. Moreover, in the experiment on male C57BL/6J mouse [6] (mouse, FIG. 10), the “necrosis in liver tissue (histopathological analysis)” value was “only minor necrosis”. In addition, in the experiment on phosphorylated JNK [9], the “increase of phosphorylated JNK signal in liver tissue” value was “significantly suppressed”.
